Measured values as given in ChEMBL document CHEMBL1201862, “PubChem BioAssay data set” (2004).
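Each compound was tested at five concentrations against cells in 96-well plates for 48 hours. Here, GI50 denotes the concentration required for 50% inhibition of growth.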 Active and inactive are the calls of the source. Rule as the data show it: active = GI50 up to about 1.1 µM and inactive = higher.

Tests used:
Experiment in all cases: growth of human tumour cells (NCI), 48 h
786-0 = test system: 786-0
ACHN = test system: ACHN
HCC 2998 = test system: HCC 2998
HCT-116 = test system: HCT-116
HT-29 = test system: HT-29
KM12 = test system: KM12
LOX IMVI = test system: LOX IMVI
M14 = test system: M14
Malme-3M = test system: Malme-3M
OVCAR-4 = test system: OVCAR-4
OVCAR-5 = test system: OVCAR-5
RXF 393 = test system: RXF 393
SN12C = test system: SN12C
SNB-19 = test system: SNB-19
SNB-75 = test system: SNB-75
U-251 = test system: U-251
UACC-62 = test system: UACC-62
NCI/ADR-RES = test system: NCI/ADR-RES
PC-3 = test system: PC-3
MCF7 = test system: MCF7

SMILES	GI50 (786-0)	GI50 (ACHN)	GI50 (HCC 2998)	GI50 (HCT-116)	GI50 (HT-29)	GI50 (KM12)	GI50 (LOX IMVI)	GI50 (M14)	GI50 (Malme-3M)	GI50 (OVCAR-4)	GI50 (OVCAR-5)	GI50 (RXF 393)	GI50 (SN12C)	GI50 (SNB-19)	GI50 (SNB-75)	GI50 (U-251)	GI50 (UACC-62)	GI50 (NCI/ADR-RES)	GI50 (PC-3)	GI50 (MCF7)
O=S(=O)(/C=C/c1ccc(F)cc1)Cc1ccc(CS(=O)(=O)/C=C/c2ccc(F)cc2)cc1	> 100 µM (inactive)	> 100 µM (inactive)	> 100 µM (inactive)	> 100 µM (inactive)	> 100 µM (inactive)	> 100 µM (inactive)	> 100 µM (inactive)	> 100 µM (inactive)	> 100 µM (inactive)	> 100 µM (inactive)	> 100 µM (inactive)	> 100 µM (inactive)	> 100 µM (inactive)	> 100 µM (inactive)	> 100 µM (inactive)	> 100 µM (inactive)	> 100 µM (inactive)			
CC(=O)OC1COC(N2C(=O)C(=O)c3cc(Br)ccc32)C(OC(C)=O)C1OC(C)=O (configuration not stated)	> 100 µM (inactive)	> 100 µM (inactive)	> 100 µM (inactive)		> 100 µM (inactive)	> 100 µM (inactive)	> 100 µM (inactive)	> 100 µM (inactive)	> 100 µM (inactive)	> 100 µM (inactive)		> 100 µM (inactive)	> 100 µM (inactive)	> 100 µM (inactive)	> 100 µM (inactive)	> 100 µM (inactive)	> 100 µM (inactive)			
Cc1cc(C)[n+](CCOc2ccc(/C(=C(/Cl)c3ccccc3)c3ccccc3)cc2)c(C)c1.[O-][Cl+3]([O-])([O-])[O-]	2.45 µM (inactive)	10 µM (inactive)	0.701 µM (active)	0.743 µM (active)	0.809 µM (active)	0.697 µM (active)	0.778 µM (active)	2 µM (inactive)	1.4 µM (inactive)	0.944 µM (active)	2.69 µM (inactive)	2.49 µM (inactive)	0.774 µM (active)	0.865 µM (active)	0.697 µM (active)	0.685 µM (active)	0.741 µM (active)			
CN1C=C(C(N)=O)C2CC(O)[C@@](NC(=O)CS(N)(=O)=O)(C(=O)O)C2C1 (some centres not stated)	3.61 µM (inactive)	4.88 µM (inactive)	18.5 µM (inactive)	3.32 µM (inactive)	3.33 µM (inactive)	20.7 µM (inactive)	2.37 µM (inactive)	1.49 µM (inactive)	4.57 µM (inactive)	2.09 µM (inactive)	2.42 µM (inactive)	1.76 µM (inactive)	18.2 µM (inactive)	2.79 µM (inactive)	2.23 µM (inactive)	3.05 µM (inactive)	2.17 µM (inactive)			
Cc1cc(Cl)cc2c1NC(=O)C2(O)CC(=O)c1ccco1 (configuration not stated)	54.7 µM (inactive)	> 100 µM (inactive)	> 100 µM (inactive)	> 77.3 µM (inactive)	> 79.6 µM (inactive)	> 75.9 µM (inactive)	> 42 µM (inactive)	> 66.2 µM (inactive)	> 48.5 µM (inactive)	12.3 µM (inactive)	> 100 µM (inactive)	57 µM (inactive)	> 85.1 µM (inactive)	> 100 µM (inactive)	55.1 µM (inactive)	> 90.6 µM (inactive)	31 µM (inactive)	59.7 µM (inactive)	> 100 µM (inactive)	
COc1ccc2cc(Oc3ccc(Cl)cc3)c(=O)oc2c1	> 100 µM (inactive)	> 100 µM (inactive)	> 10 µM (inactive)	> 100 µM (inactive)	> 100 µM (inactive)	> 100 µM (inactive)	> 100 µM (inactive)	> 100 µM (inactive)	> 100 µM (inactive)	> 100 µM (inactive)	> 100 µM (inactive)	> 100 µM (inactive)	> 100 µM (inactive)	> 100 µM (inactive)	> 100 µM (inactive)	> 10 µM (inactive)			> 100 µM (inactive)	> 100 µM (inactive)
CCOC(=O)c1ncn2c1[nH]c(=S)c1ccccc12	> 100 µM (inactive)	> 100 µM (inactive)	> 100 µM (inactive)	> 100 µM (inactive)	> 100 µM (inactive)	> 100 µM (inactive)	61.7 µM (inactive)	> 100 µM (inactive)	> 100 µM (inactive)	> 100 µM (inactive)	> 100 µM (inactive)	> 100 µM (inactive)	> 100 µM (inactive)	> 100 µM (inactive)	> 100 µM (inactive)	46.9 µM (inactive)	> 100 µM (inactive)			
CCOC(=O)NC(Nc1cc(Cl)ccc1OC)(C(F)(F)F)C(F)(F)F		> 100 µM (inactive)	> 100 µM (inactive)	> 100 µM (inactive)	> 100 µM (inactive)	> 100 µM (inactive)	> 100 µM (inactive)	> 100 µM (inactive)	> 100 µM (inactive)		> 100 µM (inactive)	68.9 µM (inactive)	> 100 µM (inactive)	> 100 µM (inactive)	> 100 µM (inactive)	> 100 µM (inactive)	> 100 µM (inactive)			> 100 µM (inactive)
COc1cc(C2=C(C#N)C(N)OC3=C2COc2ccccc23)cc(OC)c1OC (configuration not stated)		12.6 µM (inactive)	14.4 µM (inactive)	16.7 µM (inactive)	77.1 µM (inactive)	81.7 µM (inactive)	35.5 µM (inactive)	42 µM (inactive)	11.9 µM (inactive)	5.22 µM (inactive)	> 100 µM (inactive)		16.1 µM (inactive)	9.29 µM (inactive)		14.7 µM (inactive)	50.4 µM (inactive)	25.2 µM (inactive)	16.6 µM (inactive)	> 100 µM (inactive)
COc1cc2c(oc(=O)c3cc4ccoc4c(OC)c32)c2cccc(O)c12	> 100 µM (inactive)	> 100 µM (inactive)	> 100 µM (inactive)	> 100 µM (inactive)	> 100 µM (inactive)	> 100 µM (inactive)	> 100 µM (inactive)	> 100 µM (inactive)	> 100 µM (inactive)	> 100 µM (inactive)	> 100 µM (inactive)	> 100 µM (inactive)	> 100 µM (inactive)	> 100 µM (inactive)	60.3 µM (inactive)	> 100 µM (inactive)	> 100 µM (inactive)			
COC(=O)C(C(=O)C(N)=O)c1csc(-n2nc(-c3ccccc3)cc2-c2ccccc2)n1 (configuration not stated)	> 31.6 µM (inactive)	> 31.6 µM (inactive)	> 31.6 µM (inactive)	> 31.6 µM (inactive)	41.9 µM (inactive)	22.6 µM (inactive)	> 88.1 µM (inactive)	> 31.6 µM (inactive)	> 31.6 µM (inactive)	> 31.6 µM (inactive)	> 100 µM (inactive)	> 31.6 µM (inactive)	> 10 µM (inactive)	12.5 µM (inactive)	> 31.6 µM (inactive)	24.5 µM (inactive)	> 31.6 µM (inactive)			
COC(=O)c1ccccc1NC(=O)C(=O)Cc1nc2c3c(ccc2nc1O)C(=O)c1ccccc1C3=O	16.2 µM (inactive)	25 µM (inactive)	16.8 µM (inactive)	9.29 µM (inactive)	35.9 µM (inactive)	5.26 µM (inactive)	12.5 µM (inactive)	12.7 µM (inactive)	8.26 µM (inactive)	9.06 µM (inactive)	79.4 µM (inactive)	2.08 µM (inactive)	29.6 µM (inactive)	12.6 µM (inactive)	28.1 µM (inactive)	17.1 µM (inactive)	4.48 µM (inactive)			
CN(C)C[C@H]1CC[C@@H](CN(C)C)C1=O	5.68 µM (inactive)	8.32 µM (inactive)	> 29.6 µM (inactive)	8.32 µM (inactive)	9.84 µM (inactive)	16.9 µM (inactive)	7.14 µM (inactive)	8.77 µM (inactive)	3 µM (inactive)	9.23 µM (inactive)	8.79 µM (inactive)	9.29 µM (inactive)	8.59 µM (inactive)	> 50 µM (inactive)	14.5 µM (inactive)	28.7 µM (inactive)	9.08 µM (inactive)		8.63 µM (inactive)	1.18 µM (inactive)
COc1cccc2c1OCC1Cc3ccccc3OC21 (configuration not stated)	35.6 µM (inactive)		51.6 µM (inactive)	33.6 µM (inactive)	57.4 µM (inactive)	42.8 µM (inactive)	33.3 µM (inactive)	44 µM (inactive)	42.4 µM (inactive)		> 100 µM (inactive)		27.7 µM (inactive)			43.9 µM (inactive)	45.4 µM (inactive)	33.4 µM (inactive)	34.9 µM (inactive)	38.1 µM (inactive)
NC(CCC(=O)NC(CSSCCCCS(=O)O)C(=O)NCC(=O)O)C(=O)O (configuration not stated)	> 100 µM (inactive)	> 100 µM (inactive)	> 100 µM (inactive)	> 100 µM (inactive)	> 100 µM (inactive)	> 100 µM (inactive)	> 100 µM (inactive)	> 100 µM (inactive)	> 100 µM (inactive)	> 100 µM (inactive)	> 100 µM (inactive)	> 100 µM (inactive)	> 100 µM (inactive)	> 100 µM (inactive)	23.4 µM (inactive)	> 100 µM (inactive)	> 100 µM (inactive)			
O=C(NC1CCN(Cc2ccccc2)CC1)c1ccccc1I	26.1 µM (inactive)	49.3 µM (inactive)		16.7 µM (inactive)	16.6 µM (inactive)	17.3 µM (inactive)	17.5 µM (inactive)	18.7 µM (inactive)	17.5 µM (inactive)	86.3 µM (inactive)	22.5 µM (inactive)	43.9 µM (inactive)	62.7 µM (inactive)	51.4 µM (inactive)		23.2 µM (inactive)	18.5 µM (inactive)	25.7 µM (inactive)	23.6 µM (inactive)	
